No end group written: not given here.
Experiments:
cow = conditions: cited from earlier work
lactating dairy cows = assay: Ovulation response to GnRH injection in lactating dairy cows; type: in vivo, bovine
Description: The sequential hormone treatments function in the following manner. The first injection of GnRH (or the LH or hCG if used) will cause ovulation of any large functional follicles that are present on the ovaries. Experimental work has shown that a follicle will ovulate in over 80% of lactating dairy cows that are given this GnRH injection. This ensures that a Corpus Luteum is present on the ovary to inhibit animals from coming into heat during the following week. This injection causes growth of a new wave of follicles due to secretion of follicle stimulating hormone (FSH) from the pituitary gland. Thus, the first injection of GnRH assures the presence of a corpus luteum and synchronizes the growth of a new follicular wave. The follicle that will eventually ovulate will come from this new wave of follicles.
As with other protocols, such as disclosed in the aforementioned patent to Donaldson, the injection of PGF2a is designed to regress any corpora lutea that are present on the ovary. This allows the new dominant follicle to proceed toward ovulation. Usually about 11/2 to 2 days later, just before two animals would begin to show signs of heat, the cows are given a second injection of GnRH. At this time the new dominant follicle should be at a large ovulatory size and this injection will cause the large follicle to ovulate. However, as indicated previously, the second dose of GnRH can be given at the same time as the PGF2a injection and this can be done where it is desirable to enhance management efficiency; that is by combining the PGF2a and GnRH injection, one step in the treatment protocol is eliminated. The cows will ovulate at 1-2 days, usually 24-32 hours after this second injection of GnRH. Thus, instead of having animals show heat over a 7 day period of time, ovulation can be synchronized to an 8 hour period of time. This concise synchronization allows for effective timed insemination.

cows = assay: Artificial insemination concomitant with second GnRH dose (preliminary work); type: in vivo, bovine; conditions: insemination near or at the same time as second GnRH injection
Protocol: While the normal practice will be to inseminate the cows about 16-20 hours after the second GnRH injection, insemination can occur any time ranging from the time of the GnRH injection or a day before or up to about a day later. Ovulation need not occur before insemination since the sperm can survive in the reproductive track for up to one or even two days after insemination. Thus insemination can safely take place one day before the GnRH injection. Preliminary work has shown that in some cases there may be some advantages to carrying out the artificial insemination concomitantly with the administration of the second dose of GnRH or within eight hours either before or after the second dose of GnRH.

[1] = second GnRH injection after PGF2a

| Molecule | time to heat after PGF2a, large dominant follicle present (cow; PGF2a given when a large dominant follicle is present) | time for follicle to grow large enough to induce heat after PGF2a, new follicular wave just beginning (cow; PGF2a given when a new follicular wave is just beginning) | period of time to which ovulation is synchronized (lactating dairy cows; after second GnRH injection) | lactating dairy cows in which a follicle will ovulate after the first GnRH injection (lactating dairy cows; first injection of GnRH, any stage of estrous cycle) | time of ovulation after second injection of GnRH (lactating dairy cows; [1]) | usual time of ovulation after second injection of GnRH (lactating dairy cows; [1]) | birth rate of female calves (cows) | spontaneous abortion rate (cows) |
| --- | --- | --- | --- | --- | --- | --- | --- | --- |
| CCCCC[C@H](O)/C=C/[C@@H]1[C@@H](C/C=C\CCCC(=O)O)[C@@H](O)C[C@H]1O [PGF2a, prostaglandin F2α] | 2 to 3 days | 6 to 7 days |  |  |  |  |  |  |
| gonadotropin releasing hormone (QHWSYGLRPG; ends and bridges not checked; UniProt P01148 24-33, looked up) [GnRH] |  |  | 8 h | over 80% | 1 to 2 days | 24 to 32 h | enhancement in the birth rate of female calves | somewhat lower spontaneous abortion rate |
